Results: US10844051B2, “Substituted oxazoles for the treatment of cancer” (THE ROYAL INSTITUTION FOR THE ADCANCEMENT OF …, priority 2015, dated 2020)

Tested on: hSTING and/or mSTING
Test: hSTING- or mSTING-dependent ISRE-luc reporter assay in 293T cells
Format: cell-based
Settings: 24 hours
Method: ISRE-luc (reporter), pRL-TK (internal control) and hSTING- or mSTING-expressing plasmids were transiently transfected into 293T cells. Cells were exposed to DMSO vehicle control or compounds for 24 hours. Experiments were done in triplicate.

SMILES | activation of hSTING and/or mSTING in ISRE-luc reporter assay
COc1ccc2[nH]cc(CCN(Cc3nc(-c4cccc(F)c4)c(-c4cccc(F)c4)[nH]3)S(=O)(=O)c3ccccc3[N+](=O)[O-])c2c1 [Compound 1039] | activate hSTING and/or mSTING
O=[N+]([O-])c1ccccc1S(=O)(=O)N(Cc1ccc2[nH]ccc2c1)Cc1nc(-c2cccc(F)c2)c(-c2cccc(F)c2)[nH]1 [Compound 1040] | activate hSTING and/or mSTING
COc1ccc2[nH]cc(CCNCc3nc(-c4cccc(F)c4)c(-c4cccc(F)c4)[nH]3)c2c1 [Compound 1041] | activate hSTING and/or mSTING
Fc1cccc(-c2nc(CNCc3ccc4[nH]ccc4c3)[nH]c2-c2cccc(F)c2)c1 [Compound 1042] | activate hSTING and/or mSTING
Cn1cc(CNCc2nc(-c3cccc(F)c3)c(-c3cccc(F)c3)[nH]2)c2ccccc21 [Compound 1096] | activate hSTING and/or mSTING
Brc1ccc(N2CCN(Cc3nc(-c4ccccc4)c(-c4ccccc4)o3)CC2)cc1 [Compound 1097] | activate hSTING and/or mSTING
Clc1ccc(N2CCN(Cc3nc(-c4ccccc4)c(-c4ccccc4)[nH]3)CC2)cc1Cl [Compound 1098] | activate hSTING and/or mSTING
c1ccc(-c2nc(CN3CCN(c4ccccc4)CC3)[nH]c2-c2ccccc2)cc1 [Compound 1099] | activate hSTING and/or mSTING
OC1(c2ccccc2)CCN(Cc2nc(-c3ccccc3)c(-c3ccccc3)o2)CC1 [Compound 1103] | activate hSTING and/or mSTING
N#Cc1ccc(N2CCN(Cc3nc(-c4cccc(F)c4)c(-c4cccc(F)c4)[nH]3)CC2)cc1 [Compound 1104] | activate hSTING and/or mSTING
N#Cc1ccc(N2CCN(Cc3nc(-c4ccccc4)c(-c4ccccc4)[nH]3)CC2)cc1 [Compound 1120] | activate hSTING and/or mSTING
O=C(c1ccccc1)N1CCN(Cc2nc(-c3cccc(F)c3)c(-c3cccc(F)c3)[nH]2)CC1 [Compound 1121] | activate hSTING and/or mSTING
O=C(c1ccccc1)N1CCN(Cc2nc(-c3ccccc3)c(-c3ccccc3)[nH]2)CC1 [Compound 1122] | activate hSTING and/or mSTING
O=C(c1ccccc1)N1CCN(Cc2nc(-c3ccccc3)c(-c3ccccc3)o2)CC1 [Compound 1123] | activate hSTING and/or mSTING
c1ccc(-c2nc(CN3CCC(c4c[nH]c5ccccc45)CC3)oc2-c2ccccc2)cc1 [Compound 1124] | activate hSTING and/or mSTING
O=C(c1ccco1)N1CCN(Cc2nc(-c3ccccc3)c(-c3ccccc3)[nH]2)CC1 [Compound 1125] | activate hSTING and/or mSTING
O=C(c1ccco1)N1CCN(Cc2nc(-c3ccccc3)c(-c3ccccc3)o2)CC1 [Compound 1126] | activate hSTING and/or mSTING
OC1(c2cccc(C(F)(F)F)c2)CCN(Cc2nc(-c3ccccc3)c(-c3ccccc3)o2)CC1 [Compound 1127] | activate hSTING and/or mSTING
OC1(c2cccc(C(F)(F)F)c2)CCN(Cc2nc(-c3ccccc3)c(-c3ccccc3)[nH]2)CC1 [Compound 1129] | activate hSTING and/or mSTING
Fc1cccc(-c2nc(CN3CCC(c4c[nH]c5ccccc45)CC3)[nH]c2-c2cccc(F)c2)c1 [Compound 1137] | activate hSTING and/or mSTING
Oc1ccc(N2CCN(Cc3nc(-c4cccc(F)c4)c(-c4cccc(F)c4)[nH]3)CC2)cc1 [Compound 1139] | activate hSTING and/or mSTING
CNC(=O)c1ccc(C2CCN(Cc3nc(-c4cccc(F)c4)c(-c4cccc(F)c4)[nH]3)CC2)cc1 [Compound 1140] | activate hSTING and/or mSTING
COc1cccc(N2CCN(Cc3nc(-c4cccc(F)c4)c(-c4cccc(F)c4)[nH]3)CC2)c1 [Compound 1141] | activate hSTING and/or mSTING
COc1cccc(N2CCN(Cc3nc(-c4ccccc4)c(-c4ccccc4)o3)CC2)c1 [Compound 1142] | activate hSTING and/or mSTING
COc1cccc(N2CCN(Cc3nc(-c4ccccc4)c(-c4ccccc4)[nH]3)CC2)c1 [Compound 1143] | activate hSTING and/or mSTING

Same assay, conditions: 24 hours, 10 μM

SMILES | activation of hSTING and/or mSTING in ISRE-luc reporter assay
FC(F)(F)c1cccc(CCc2nc(-c3ccccc3)c(-c3ccccc3)o2)c1 [Compound 1011] | activate hSTING and/or mSting
Fc1cccc(-c2nc(/C=C/c3cc(C(F)(F)F)cc(C(F)(F)F)c3)oc2-c2cccc(F)c2)c1 [Compound 1012] | activate hSTING and/or mSting
Fc1cccc(-c2nc(/C=C/c3cccs3)oc2-c2cccc(F)c2)c1 [Compound 1013] | activate hSTING and/or mSting
COc1cccc(-c2nc(CCc3cc(C(F)(F)F)cc(C(F)(F)F)c3)oc2-c2cccc(OC)c2)c1 [Compound 1033] | activate hSTING and/or mSting
Fc1cccc(-c2nc(/C=C/c3ccoc3)oc2-c2cccc(F)c2)c1 [Compound 1035] | activate hSTING and/or mSting
Fc1cccc(-c2nc(/C=C/c3ccsc3)oc2-c2cccc(F)c2)c1 [Compound 1036] | activate hSTING and/or mSting
Fc1cccc(-c2nc(/C=C/c3ccsc3)[nH]c2-c2cccc(F)c2)c1 [Compound 1037] | activate hSTING and/or mSting
Fc1cccc(-c2nc(CN3CCC(c4cccc(C(F)(F)F)c4)CC3)[nH]c2-c2cccc(F)c2)c1 [Compound 1173] | activate hSTING and/or mSTING
Fc1cccc(-c2nc(CN3CCN(c4ccc(Br)cc4)CC3)[nH]c2-c2cccc(F)c2)c1 [Compound 1174] | activate hSTING and/or mSTING
Fc1cccc(-c2nc(CN3CCN(Cc4ccccc4)CC3)[nH]c2-c2cccc(F)c2)c1 [Compound 1175] | activate hSTING and/or mSTING
O=C(c1cccc(F)c1)N1CCN(Cc2nc(-c3cccc(F)c3)c(-c3cccc(F)c3)[nH]2)CC1 [Compound 1177] | activate hSTING and/or mSTING
O=C(c1ccccc1F)N1CCN(Cc2nc(-c3cccc(F)c3)c(-c3cccc(F)c3)[nH]2)CC1 [Compound 1178] | activate hSTING and/or mSTING
O=C(c1ccc(F)cc1)N1CCN(Cc2nc(-c3cccc(F)c3)c(-c3cccc(F)c3)[nH]2)CC1 [Compound 1179] | activate hSTING and/or mSTING

Same assay, conditions: 24 hours, 20 μM

SMILES | activation of hSTING and/or mSTING in ISRE-luc reporter assay
O=C(c1cccc(F)c1)N1CCN(Cc2nc(-c3ccccc3)c(-c3ccccc3)o2)CC1 [Compound 1180] | activate hSTING and/or mSTING
Oc1cccc(N2CCN(Cc3nc(-c4cccc(F)c4)c(-c4cccc(F)c4)[nH]3)CC2)c1 [Compound 1181] | activate hSTING and/or mSTING
